Assay results reported in the PolyMetriX glass transition set.
± gives the standard deviation of the reports.

Row | glass transition temperature [°C] | Structure (SMILES)
1 | 29.00 | *c1ccc2c(c1)C(CCCCCCCC)(CCCCCCCC)c1cc(-c3c(F)c(F)c(*)c(F)c3F)ccc1-2 (repeat unit)
2 | 78.00 | *CCOC(=O)c1cccc2c(C(=O)O*)cccc12 (repeat unit)
3 | 279.00 | *Oc1ccc(NC(=O)Nc2cc(NC(=O)Nc3ccc(*)c(-c4ccc(Oc5ccccc5)cc4)c3)ccc2C)cc1-c1ccc(Oc2ccccc2)cc1 (repeat unit)
4 | 103.00 | *CCCCCCCCCCN1C(=O)c2ccc(-c3ccc(-c4ccc5c(c4)C(=O)N(*)C5=O)cc3)cc2C1=O (repeat unit)
5 | 46.00 | *C/C=C/COC(=O)C(Cc1ccccc1)NC(=O)CCCCCCCCC(=O)NC(Cc1ccccc1)C(=O)O* (repeat unit)
6 | 305.00 | *Nc1cccc2c(NC(=O)c3ccc(C(*)=O)cc3)cccc12 (repeat unit)
7 | 233.00 | *Cc1cc2cc(C(=O)Nc3ccc(S(=O)(=O)c4ccc(NC(=O)c5cc6cc(*)c(OC(=O)COc7ccc8ccc(=O)oc8c7)cc6oc5=O)cc4)cc3)c(=O)oc2cc1OC(=O)COc1ccc2ccc(=O)oc2c1 (repeat unit)
8 | 182.00 | *Oc1c(F)c(F)c(S(=O)(=O)c2c(F)c(F)c(Oc3ccc(C(c4ccc(*)cc4)(C(F)(F)F)C(F)(F)F)cc3)c(F)c2F)c(F)c1F (repeat unit)
9 | 157.00 | *c1cccc(C(F)(F)C(F)(F)C(F)(F)C(F)(F)C(F)(F)c2cccc(N3C(=O)c4ccc(Oc5ccc6c(c5)C(=O)N(*)C6=O)cc4C3=O)c2)c1 (repeat unit)
10 | 131.00 | *CC(OCC)C(C)(C(=O)OC)C(*)(C)C(=O)OC (repeat unit)
11 | 206.00 | *c1ccc(Oc2ccc(Sc3ccc(Oc4ccc(N5C(=O)c6ccc(Oc7ccc(-c8ccc(Oc9ccc%10c(c9)C(=O)N(*)C%10=O)cc8)cc7)cc6C5=O)cc4)cc3)cc2)cc1 (repeat unit)
12 | 177.00 | *Nc1ccc(C(C)(C)c2ccc(C(C)(C)c3ccc(Nc4ccc(C(O)(c5ccccc5)c5ccc(C(O)(c6ccccc6)c6ccc(*)cc6)cc5)cc4)cc3)cc2)cc1 (repeat unit)
13 | 308.00 | *C(=O)c1ccc2c(c1)C(=O)N(c1cccc(C(=O)Nc3ccc(N4C(=O)c5ccc(*)cc5C4=O)cc3)c1)C2=O (repeat unit)
14 | 41.00 | *Oc1ccc(OC2(F)C(*)(F)C(F)(F)C2(F)F)cc1 (repeat unit)
15 | 48.00 | *O[Si](*)(C)CCCOc1ccc(C(=O)Oc2ccc(-c3ccc(OC(=O)c4cc(OCCCCCCCCCCCC)c(OCCCCCCCCCCCC)c(OCCCCCCCCCCCC)c4)cc3)cc2)cc1 (repeat unit)
16 | 365.00 | *C(=O)c1ccc2c(c1)C(=O)N(c1ccc(-c3ccc(N4C(=O)c5ccc(*)cc5C4=O)c(C)c3)cc1C)C2=O (repeat unit)
17 | 185.50 | *Oc1ccc(-c2ccc(OC(=O)c3cccc(C(*)=O)c3)cc2)cc1 (repeat unit)
18 | 228.00 | *c1ccc(/C=C/c2ccc(-n3c(=O)c4cc5c(=O)n(*)c(=O)c5cc4c3=O)cc2S(=O)(=O)[O][Na])c(S(=O)(=O)[O][Na])c1 (repeat unit)
19 | 187.50 | *CCCCCCN(CC(F)(F)C(F)(F)C(F)(F)C(F)(F)C(F)(F)C(F)(F)C(F)(F)F)C(=O)C(F)(F)C(F)(F)C(F)(F)C(=O)N(*)CC(F)(F)C(F)(F)C(F)(F)C(F)(F)C(F)(F)C(F)(F)C(F)(F)F (repeat unit)
20 | 76.00 | *CCOCCOC(=O)/C=C/C(=O)NCCCCCCNC(=O)/C=C/C(=O)O* (repeat unit)
21 | 151.00 | *c1cc(C(=O)OCCCCCCCCCCOc2ccc(-c3ccc(OC(=O)c4ccc(OCC(F)CCCCCC)cc4)cc3)cc2)c(*)s1 (repeat unit)
22 | 38.10 | */C=C/c1cccc(/C=C/[Si](C)(C)c2ccc([Si](*)(C)C)cc2)c1 (repeat unit)
23 | 154.00 | *Oc1ccc(C(=O)c2ccc(*)cc2)cc1 (repeat unit)
24 | 42.00 | *O[Si](*)(C)CCCOc1ccc(C(=O)OCCOc2ccc(C(=O)OC3CCC4(C)C(=CCC5C4CCC4(C)C(C(C)CCCC(C)C)CCC54)C3)cc2)cc1 (repeat unit)
25 | 165.00 | *CCCC1(CCCNC(=O)c2ccccc2-c2ccccc2C(=O)N*)c2ccccc2-c2ccccc21 (repeat unit)
26 | 150.00 | *c1ccc(Oc2ccc(-c3csc(/N=C/c4ccc(OCCCCCCCCOc5ccc(/C=N/c6nc(*)cs6)cc5)cc4)n3)cc2)cc1 (repeat unit)

Row | glass transition temperature [°C] | Structure (SMILES)
27 | 331.00 | *C(=O)c1ccc2c(c1)C(=O)N(c1ccc(-c3cc(-c4ccc(OC)cc4)cc(-c4ccc(N5C(=O)c6ccc(*)cc6C5=O)cc4)n3)cc1)C2=O (repeat unit)
28 | 292.00 | *C(=O)Nc1cccc(NC(=O)c2cccc(NC(=O)c3ccc(-c4nc5cc(*)ccc5[nH]4)cc3)c2)c1 (repeat unit)
29 | 16.00 | *CC(*)(C)C(=O)OCCCCCCOc1ccc(OC(=O)c2ccc(OCCCCCC)cc2)cc1 (repeat unit)
30 | 145.00 | *CCOCCOCCOCCOCCOc1ccc(C(=O)Nc2cc(NC(=O)c3ccc(O*)cc3)cc(-c3nc4ccccc4[nH]3)c2)cc1 (repeat unit)
31 | 19.50 | *OC(=O)OCCCCCCCCOC(=O)OC1COC2C(*)COC12 (repeat unit)
32 | 303.00 | *c1ccc2oc(-c3ccc(Oc4ccc(-c5nc6cc(C(*)(C(F)(F)F)C(F)(F)F)ccc6o5)cc4)cc3)nc2c1 (repeat unit)
33 | 278.00 | *c1ccc(-c2ccc(-c3nnc(-c4ccc([Si](c5ccccc5)(c5ccccc5)c5ccc(-c6nnc(*)o6)cc5)cc4)o3)cc2)cc1 (repeat unit)
34 | 326.00 | *c1ccc(Oc2cccc(Oc3ccc(-n4c(=O)c5cc6c(=O)n(*)c(=O)c6cc5c4=O)cc3)c2)cc1 (repeat unit)
35 | 380.00 | *c1ccc(-c2ccc(-c3cc(-c4ccccc4)c4cc(C5(c6ccc7nc(*)cc(-c8ccccc8)c7c6)c6ccccc6-c6ccccc65)ccc4n3)cc2)cc1 (repeat unit)
36 | 327.00 | *C(=O)Nc1ccc(NC(=O)c2ccc3c(c2)C(=O)N(c2c(C)cc(C)c(N4C(=O)c5ccc(*)cc5C4=O)c2C)C3=O)cc1 (repeat unit)
37 | 201.00 | *Oc1ccc(C2(c3ccc(Oc4ccc(C(=O)c5ccc(*)cc5)cc4)c(C)c3)CCC3CCCCC3C2)cc1C (repeat unit)
38 | 385.00 | *C(=O)c1ccc2c(c1)C(=O)N(c1ccc(-c3ccc(N4C(=O)c5ccc(*)cc5C4=O)cc3C)c(C)c1)C2=O (repeat unit)
39 | 199.00 | *C(=O)Nc1cccc(Oc2cccc(Oc3cccc(Oc4cccc(Oc5cccc(NC(=O)c6ccc7c(c6)C(=O)N(c6ccc(Oc8cccc(Oc9ccc(N%10C(=O)c%11ccc(*)cc%11C%10=O)cc9)c8C#N)cc6)C7=O)c5)c4C#N)c3)c2C#N)c1 (repeat unit)
40 | 251.50 | *Oc1ccc(-c2ccc(NC(=O)c3cc(C(=O)Nc4ccc(-c5ccc(Oc6ccc(C(c7ccc(*)cc7)(C(F)(F)F)C(F)(F)F)cc6)c(C(F)(F)F)c5)cc4)cc(C(C)(C)C)c3)cc2)cc1C(F)(F)F (repeat unit)
41 | 50.00 | *CC(C)(C)CS(=O)(=O)CC(C)(C)COC(=O)O* (repeat unit)
42 | 210.00 | */C(C#N)=C(\C#N)n1c(=O)c2cc3c(=O)n(*)c(=O)c3cc2c1=O (repeat unit)
43 | 10.00 | *CCN(*)C(=O)CCCCCCCCCCCCCCCCC (repeat unit)
44 | 250.00 | *C(=O)Nc1ccc(C(c2ccc(NC(=O)c3ccc4c(c3)C(=O)N(c3cccc5c(N6C(=O)c7ccc(*)cc7C6=O)cccc35)C4=O)cc2)(C(F)(F)F)C(F)(F)F)cc1 (repeat unit)
45 | 137.00 | *CC(*)(C)C(=O)OCCOc1ccc(C(=O)Oc2ccc(OCCCC)cc2)cc1 (repeat unit)
46 | 271.00 | *c1ccc(Sc2cc3c(cc2Sc2ccc(N4C(=O)c5ccc(Oc6ccc7c(c6)C(=O)N(*)C7=O)cc5C4=O)cc2)C(=O)N(c2ccc(CC)cc2)C3=O)cc1 (repeat unit)
47 | 262.00 | *C(=O)Nc1ccc(Oc2ccc(-c3ccc(Oc4ccc(NC(=O)c5ccc6c(c5)C(=O)N(c5ccc(Oc7ccc(N8C(=O)c9ccc(*)cc9C8=O)cc7)cc5)C6=O)cc4)cc3)cc2)cc1 (repeat unit)
48 | 143.50 | *CC(*)(C)C(=O)OCC1OC(n2ccc(=O)[nH]c2=O)C(O)C1O (repeat unit)
49 | -29.6 ± 3.9 | *CCOC(=O)CCCCCCCCC(=O)O* (repeat unit) [Poly(ethylene sebacate)]
50 | 32.00 | *CCCCCCOC(=O)Nc1ccc(C)c(NC(=O)O*)c1 (repeat unit)
51 | 56.00 | *CC(*)(C)C(=O)OCCCCCCCCCCOc1ccc(/N=N/c2ccccc2)cc1 (repeat unit)

Row | Structure (SMILES) | glass transition temperature [°C]
52 | *CC(*)OC(=O)CC (repeat unit) [Poly(vinyl propionate) ] | 10 ± 2
53 | *=NP(=NP(=NC(=*)Oc1ccc(C(F)(F)F)cc1)(Oc1ccc(C(F)(F)F)cc1)Oc1ccc(C(F)(F)F)cc1)(Oc1ccc(C(F)(F)F)cc1)Oc1ccc(C(F)(F)F)cc1 (repeat unit) | 31.00
54 | *CCCCCCOP(=O)(/N=N/c1ccc(-c2ccc(/N=N/P(=O)(O*)OC)cc2)cc1)OC (repeat unit) | 37.00
55 | *CCN(*)C(=O)c1cccc(F)c1F (repeat unit) | 110.00
56 | *CCCCCCCCCCSSSS* (repeat unit) | -76.00
57 | *CC(*)C(=O)OCCC#N (repeat unit) | 4.00
58 | *CCCCSSCCCCO* (repeat unit) | -76.00
59 | *c1cccc(P(=O)(c2ccc(C(F)(F)F)cc2)c2cccc(-n3c(=O)c4cc5c(=O)n(*)c(=O)c5c(-c5ccc(C(F)(F)F)cc5)c4c3=O)c2)c1 (repeat unit) | 303.00
60 | *Oc1ccc(P(C)(=O)c2ccc(Oc3ccc(C(c4ccc(*)cc4)(C(F)(F)F)C(F)(F)F)cc3)cc2)cc1 (repeat unit) | 208.00
61 | *CC(*)C(=O)c1ccc(CC)cc1 (repeat unit) | 49.2
